This is an account of results in EPA's ToxRefDB 2.

The test system of data set [1] is rat. The following applies: Carcinogenicity, fischer, Oral, Gavage/Intubation, dose end: 103 week, group: systemic.
Data set [2] has as its system mouse. The following applies: Sub-acute repeat dose toxicity; b6c3f1; Oral; Gavage/Intubation; dose end: 14 day; group: systemic; systemic / in life observation / mortality / mortality.
The test system of data set [3] is rat. The following applies: Prenatal developmental toxicity study, sprague dawley, Oral, Gavage/Intubation, dose end: 20 GD.
In data set [4] the test system is rat. The following applies: Sub-acute repeat dose toxicity, fischer, Oral, Gavage/Intubation, dose end: 14 day, group: systemic.
For data set [5], the system named is rat. As to conditions: Subchronic oral toxicity in rodents, fischer, Gavage/Intubation, dose end: 13 week, group: systemic.
Data set [6] deals with mouse. The following applies: Carcinogenicity; b6c3f1; Oral; Gavage/Intubation; dose end: 103 week; group: systemic; systemic / pathology microscopic / stomach / hyperplasia + systemic / pathology microscopic / stomach / inflammation.
The subject of data set [7] is rat. The following applies: Sub-acute repeat dose toxicity, sprague dawley, Oral, Gavage/Intubation, dose end: 36 day, group: systemic.
The subject of data set [8] is rat. The following applies: Fertility (Segment I); sprague dawley; Oral; Gavage/Intubation; dose end: 1 generation; group: parental; systemic / in life observation / body weight / body weight gain.
The test system of data set [9] is mouse. As to conditions: Carcinogenicity, Oral, Feed, dose end: 720 day, group: systemic.
The mark [10] stands for this setting: systemic / pathology microscopic / liver / fibrosis + systemic / pathology microscopic / liver / hyperplasia + systemic / pathology ….
Where [11] appears, read: systemic / pathology microscopic / liver / pigmentation.
The mark [12] stands for this setting: group: developmental, developmental / developmental malformation / bone / ossification sites + systemic / in life observation / body weight / fetal weight.
Where [13] appears, read: group: maternal, systemic / in life observation / body weight / body weight gain + systemic / in life observation / food consumption / food consumption + ….
Where [14] appears, read: systemic / pathology gross / intestine large / enlarged + systemic / pathology gross / liver / mottling.
The mark [15] stands for this setting: systemic / pathology microscopic / liver / basophilic focus + systemic / pathology microscopic / liver / hypertrophy + systemic / pathology ….
Where [16] appears, read: systemic / in life observation / body weight / body weight gain + systemic / in life observation / water consumption / water consumption.
Setting [17] is: systemic / in life observation / water consumption / water consumption.
[18] abbreviates: systemic / hematology / [other] / [other] + systemic / in life observation / body weight / body weight gain + systemic / in life observation….
The mark [19] stands for this setting: systemic / in life observation / mortality / mortality.

For the compound `C=CCOC(=O)c1ccccc1C(=O)OCC=C` [Diallyl phthalate], the lowest-observed-adverse-effect level (LOAEL) was 100 mg/kg/day in the data set with rat [1] (setting [10]); greater than 600 mg/kg/day in the data set with mouse [2]; greater than 250 mg/kg/day in the data set on rat [3] (setting [12]); greater than 250 mg/kg/day in the data set with rat [3] (setting [13]); 200 mg/kg/day in the data set with rat [4] (systemic / pathology gross / liver / mottling + systemic / pathology gross / liver / discolored + systemic / pathology gross / liver / …); 200 mg/kg/day with rat [5] (setting [15]). Further, the lowest observed adverse effect level (LOAEL) with mouse [6] is 150 mg/kg/day. Also, the no observed adverse effect level (NOAEL) is 50 mg/kg/day with rat [1] (setting [10]); no less than 600 mg/kg/day in the data set with mouse [2]; no less than 250 mg/kg/day with rat [3] (setting [12]); no less than 250 mg/kg/day with rat [3] (setting [13]); 100 mg/kg/day with rat [4] (systemic / pathology gross / liver / discolored + systemic / pathology gross / liver / enlarged + systemic / pathology gross / liver / …); 100 mg/kg/day in the data set with rat [5] (systemic / in life observation / clinical signs / defecation (diarrhea) + systemic / in life observation / clinical signs / emaciation + …). In addition, the no-observed-adverse-effect level (NOAEL) in the data set on mouse [6] is less than 150 mg/kg/day. For the same compound, the LEL with rat [1] (setting [11]) stood at 50 mg/kg/day; in the data set on mouse [2], 400 mg/kg/day; in the data set with rat [3] (group: developmental, systemic / in life observation / body weight / fetal weight), 200 mg/kg/day; with rat [3] (group: maternal, systemic / pathology gross / liver / discolored + systemic / pathology gross / liver / mottling), 150 mg/kg/day; in the data set with rat [4] (setting [14]) it was 50 mg/kg/day; in the data set on rat [5] (setting [15]) it was 50 mg/kg/day. Besides, in the data set with mouse [6], the LEL is 150 mg/kg/day. The NEL is less than 50 mg/kg/day in the data set with rat [1] (setting [11]); 200 mg/kg/day in the data set with mouse [2]; 150 mg/kg/day in the data set with rat [3] (setting [12]); 100 mg/kg/day with rat [3] (setting [13]); less than 50 mg/kg/day in the data set with rat [4] (setting [14]); 25 mg/kg/day in the data set with rat [5] (setting [15]). In the data set on mouse [6], the NEL was less than 150 mg/kg/day.
As for `CS(=O)(=O)N[C@@H](CCCCN)C(=O)NC[C@H](CC1(C(=O)N[C@@H](Cc2ccc(O)cc2)C(=O)O)CCCC1)C(=O)O` [Sampatrilat], the LOAEL in the data set on rat [7] (setting [16]) was greater than 300 mg/kg/day; with rat [8], greater than 1000 mg/kg/day; in the data set on mouse [9] (setting [18]) it was greater than 600 mg/kg/day. Moreover, the no observed adverse effect level (NOAEL) in the data set with rat [7] (setting [16]) is no less than 300 mg/kg/day; with rat [8], no less than 1000 mg/kg/day; with mouse [9] (setting [18]), no less than 600 mg/kg/day. Further, the LEL in the data set with rat [7] (setting [17]) stood at 30 mg/kg/day; with rat [8], 200 mg/kg/day; in the data set with mouse [9] (setting [19]), 40 mg/kg/day. In addition, the results for the NEL in the data set on rat [7] (setting [17]), in the data set with rat [8] and in the data set with mouse [9] (setting [19]) were less than 30 mg/kg/day, 50 mg/kg/day and less than 40 mg/kg/day, respectively.

What is called LOAEL is the lowest dose or exposure tested at which an adverse effect was seen. For orientation: NOAEL means the highest tested level that showed no adverse finding.
